Laboratory results taken from patent publication US20110243958A1, “ANTIMICROBIAL AGENTS THAT TARGET BACTERIAL VKOR” (priority 2008, published 2011).
Values after ≈ are worked out from the molar mass of the structure shown. “Also recorded” adds a separate entry of the source.

Experiments:
M. smegmatis = experiment: microbe, parasite or virus in culture; assay type: cell-based, Mycobacterium smegmatis; details: for growth of M. smegmatis culture: addition to culture
[1] = biological target: T1, M. tuberculosis VKOR (MtbVKOR) (Mycobacterium tuberculosis, UniProt I6X5W1); assay type: cell-based
T1 sequence (I6X5W1 1-210): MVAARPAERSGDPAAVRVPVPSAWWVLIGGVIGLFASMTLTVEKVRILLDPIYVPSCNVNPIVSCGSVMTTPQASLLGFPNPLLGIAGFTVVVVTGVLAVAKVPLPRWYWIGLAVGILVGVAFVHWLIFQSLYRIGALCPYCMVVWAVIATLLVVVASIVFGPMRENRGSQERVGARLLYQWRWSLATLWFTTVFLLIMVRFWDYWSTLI

[2] = biological target: T1, M. tuberculosis VKOR (MtbVKOR); assay type: cell-based; remark: listed apart in the source
[3] = in animals; cited from earlier work
[4] = system: some species of mycobacteria; details: cited from earlier work

| SMILES | growth of M. smegmatis culture (M. smegmatis) | activity of β-galactosidase (increase indicates inhibition of disulfide bond formation) [1] | levels necessary to inhibit growth in Msmeg (M. smegmatis) | MIC (M. smegmatis; Mycolicibacterium smegmatis, M. smegmatis grown in Middlebrook 7H9 medium (defined medium), alamar blue assay, read-out: minimal inhibitory concentration) [mM] | disulfide bond formation / VKOR activity [2] | levels necessary to inhibit VKOR activity in E. coli [2] | anti-coagulant properties [3] | growth of mycobacteria [4] |
| --- | --- | --- | --- | --- | --- | --- | --- | --- |
| CC(=O)CC(c1ccccc1)c1c(O)c2ccccc2oc1=O (stereo not drawn) [sodium warfarin] | inhibits growth | – | – | – | – | – | – | – |
| CC(=O)CC(c1ccccc1)c1c(O)c2ccccc2oc1=O (stereo not drawn) [warfarin] | caused inhibition of growth | significantly increased | high (millimolar concs.) | 4.5 (≈ 1390 µg/mL) | inhibit the tuberculosis VKOR activity; also recorded: inhibit disulfide bond formation | high (millimolar concs.) | – | – |
| CC(C)=CCC/C(C)=C/CC/C(C)=C/Cc1c(O)c2ccccc2oc1=O [ferulenol] | – | – | – | – | – | – | has anti-coagulant properties | inhibit the growth |
